Holding throughout (assay): Bliss excess, mean over the matrix (fraction); higher = more synergy
Test [1] deals with CAL-39 (Other Solid Carcinomas). The method in brief:
(§1)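 Bliss excess equals the observed combination effect minus the expected value EA + EB − EA·EB, where EA and EB are the effects of each agent alone. Combination Emax is the second-highest inhibition within the matrix. Inhibition was scaled from CellTiter-Glo 2.0 luminescence, with 0 set by vehicle wells and 1 by blank wells, after 72 hours of two-drug dosing of cells plated in 1536-well plates.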

The test system of test [2] is SNG-M (Endometrial Carcinoma). Put shortly: as §1
Test [3] relates to P31-FUJ (Acute Myeloid Leukemia). The method in brief:
as §1

The test system of another test is SK-MEL-1 (Melanoma). The method in brief:
as §1

For another test, the system named is HCC38 (Breast Carcinoma). The method in brief: as §1
The test system of a further test is CS1 (Chondrosarcoma). Put shortly: as §1
The test system of test [4] is D-283MED (Other Solid Carcinomas). The method in brief:
as §1

The subject of test [5] is HLE (Hepatocellular Carcinoma). The method in brief: as §1
Test [6] deals with DOK (Oral Cavity Carcinoma). The method in brief:
as §1

For test [7], the system named is SK-UT-1 (Other Solid Carcinomas). Put shortly:
as §1

The subject of the next test is Saos-2 (Osteosarcoma). Put shortly:
as §1

The test system of test [8] is MEG-01 (Chronic Myelogenous Leukemia). The method in brief: as §1
The subject of test [9] is HOP-92 (Non-Small Cell Lung Carcinoma). The method in brief: as §1
For test [10], the system named is HCC-827 (Lung Adenocarcinoma). Put shortly: as §1
A further test has as its system MCF7 (Breast Carcinoma). The method in brief:
as §1

In test [11] the test system is RCC10RGB (Kidney Carcinoma). Put shortly: as §1
For test [12], the system named is GDM-1 (Acute Myeloid Leukemia). The method in brief: as §1
Test [13] relates to NCI-H1688 (Small Cell Lung Carcinoma). Put shortly: as §1
Test [14] has as its system ETK-1 (Biliary Tract Carcinoma). The method in brief: as §1
Test [15] concerns HCC1143 (Breast Carcinoma). The method in brief: as §1

For `CS(=O)(=O)CCNCc1ccc(-c2ccc3ncnc(Nc4ccc(OCc5cccc(F)c5)c(Cl)c4)c3c2)o1` [Lapatinib] + Cn1cnc2c(F)c(Nc3ccc(Br)cc3Cl)c(C(=O)NOCCO)cc21 [Selumetinib] (first compound max 10 µM, 7x7, partner max 10 µM), the Bliss excess is -0.0923 in test [1]; -0.071 in test [2]; -0.0118 in [3]; -0.0654 with SK-MEL-1 (Melanoma); -0.0168 in the test with HCC38 (Breast Carcinoma); -0.0337 with CS1 (Chondrosarcoma). Besides, the Bliss excess in test [4] is 0.0163; in [5] it was 0.0068; in test [6], -0.113; in test [7], 0.0151; in the test with Saos-2 (Osteosarcoma) it was 0.0251; in test [8] it was -0.0206.

Take `Cc1nc(-c2cn3c(n2)-c2ccc(-c4cnn(C(C)(C)C(N)=O)c4)cc2OCC3)n(C(C)C)n1` [Taselisib] + O=C(Nc1ccc2[nH]nc(-c3ccncc3)c2c1)[C@@H]1CCN(CC(=O)N2CCN(c3ccc(-c4ncccn4)cc3)CC2)C1 [SCH772984] (first compound max 10 µM, 7x7, partner max 5 µM): the Bliss excess in test [1] was 0.0609; in test [2], -0.0211; in [3] it was 0.0477; in the test on SK-MEL-1 (Melanoma) it was 0.0839; in the test with HCC38 (Breast Carcinoma), 0.0325; in the test with CS1 (Chondrosarcoma), 0.0942. Besides, the Bliss excess in test [4] is 0.061; in test [5], 0.0366; in test [6] it was -0.0218; in test [7], 0.104; in the test on Saos-2 (Osteosarcoma), 0.0665; in test [8], 0.0128.

Regarding `Cc1c2c(nn1C)CSCc1cc(n(C)n1)CSc1cc(c3ccccc3c1)OCCCc1c(C(=O)O)n(C)c3c-2c(Cl)ccc13` [AZD5991] + C=CCn1c(=O)c2cnc(Nc3ccc(N4CCN(C)CC4)cc3)nc2n1-c1cccc(C(C)(C)O)n1 [AZD1775] (first compound max 1 µM, partner max 1 µM), the Bliss excess in test [9] is -0.012; in test [1], 0.0957; in test [2] it was -0.0456; in [3] it was -0.0127; with SK-MEL-1 (Melanoma), -0.0137; in [10], -0.0243. The Bliss excess was -0.0622 in the test on MCF7 (Breast Carcinoma); 0.0396 with HCC38 (Breast Carcinoma); -0.0118 in the test with CS1 (Chondrosarcoma); -0.0583 in test [4]; 0.0017 in [5]; -0.0235 in test [6]. Moreover, the Bliss excess in test [7] was -0.0534; in test [11], -0.0182; in test [12], 0.0207; in [13], -0.0502; in [14] it was 0.0386; in test [8] it was -0.0401. Moreover, the Bliss excess in test [15] worked out at 0.0689.

As for `Cc1c2c(nn1C)CSCc1cc(n(C)n1)CSc1cc(c3ccccc3c1)OCCCc1c(C(=O)O)n(C)c3c-2c(Cl)ccc13` [AZD5991] + C[C@@H]1COCCN1C2=NC(=NC(=C2)C3(CC3)[S@](=N)(=O)C)C4=C5C=CNC5=NC=C4 [AZD6738] (first compound max 1 µM, 7x7, partner max 10 µM), the Bliss excess in [9] is 0.0003; in test [1], -0.0411; in test [2] it was 0.0516; in test [3] it was -0.0033; in the test on SK-MEL-1 (Melanoma), -0.0255; in the test on MCF7 (Breast Carcinoma), 0.0286. Moreover, the Bliss excess is 0.0528 in the test with HCC38 (Breast Carcinoma); 0.0029 in the test on CS1 (Chondrosarcoma); -0.0109 in test [4]; 0.0075 in [5]; -0.0115 in test [7]; 0.0332 in test [11]. The Bliss excess in test [12] is 0.0863; with Saos-2 (Osteosarcoma), -0.0135; in test [13], 0.0406; in test [14], 0.0015; in [8] it was -0.0227; in test [15], 0.0032.

Take `CN(CCO)CC[C@H](CSc1ccccc1)Nc1ccc(S(=O)(=O)NC(=O)c2ccc(N3CCC([C@@H](O)c4ccccc4-c4ccc(Cl)cc4)CC3)cc2)cc1S(=O)(=O)C(F)(F)F` [AZD4320] + Cn1cnc2c(F)c(Nc3ccc(Br)cc3Cl)c(C(=O)NOCCO)cc21 [Selumetinib] (first compound max 1 µM, 7x7, partner max 3 µM): the Bliss excess in test [9] is -0.0341; in test [1] it was 0.0039; in test [2], 0.0038; in test [3], 0.125; in the test with SK-MEL-1 (Melanoma) it was 0.0228; in test [10], -0.0011. Also, the Bliss excess in the test on MCF7 (Breast Carcinoma) is 0.0377; in the test with HCC38 (Breast Carcinoma) it was -0.0375; with CS1 (Chondrosarcoma), -0.0054; in test [4], 0.0172; in [5] it was -0.0142; in test [6], -0.0003. The Bliss excess was -0.0159 in test [11]; 0.0223 in test [12]; -0.0016 in the test on Saos-2 (Osteosarcoma); 0.0285 in [13]; 0.0502 in test [14]; 0.0005 in [8]. Besides, in test [15], the Bliss excess amounted to 0.0112.

As for `C=CCn1c(=O)c2cnc(Nc3ccc(N4CCN(C)CC4)cc3)nc2n1-c1cccc(C(C)(C)O)n1` [AZD1775] + C1CN(CCC1(C(=O)N[C@@H](CCO)C2=CC=C(C=C2)Cl)N)C3=NC=NC4=C3C=CN4 [Capivasertib] (first compound max 3 µM, partner max 3 µM), the Bliss excess in test [9] was 0.0152; in test [1], -0.0152; in test [2], -0.0575; in [3], -0.0276; in the test with SK-MEL-1 (Melanoma) it was -0.059; in [10], 0.0073. Also, the Bliss excess was 0.0075 in the test with MCF7 (Breast Carcinoma); -0.105 with HCC38 (Breast Carcinoma); -0.0394 in the test on CS1 (Chondrosarcoma); -0.0189 in [4]; -0.0734 in test [5]; 0.0014 in test [6]. Besides, the Bliss excess in test [7] was -0.0037; in test [11] it was -0.0144; in [12], -0.0422; with Saos-2 (Osteosarcoma), -0.0459; in [13], -0.0409; in test [14], -0.107. Further, the Bliss excess in test [15] is -0.05.

Take `C[C@@H]1COCCN1c1cc(C2([S@](C)(=N)=O)CC2)nc(-c2ccnc3[nH]ccc23)n1` [AZD6738] + O=C(c1cc(Cc2n[nH]c(=O)c3ccccc23)ccc1F)N1CCN(C(=O)C2CC2)CC1 [Olaparib] (first compound max 10 µM, 7x7, partner max 10 µM): the Bliss excess is 0.0158 in [9]; 0.0294 in test [2]; -0.0848 in test [3]; -0.0012 in the test on SK-MEL-1 (Melanoma); -0.0086 in test [10]; 0.0135 in the test with MCF7 (Breast Carcinoma). Further, the Bliss excess in the test with HCC38 (Breast Carcinoma) is 0.0122; with CS1 (Chondrosarcoma) it was 0.0318; in test [4] it was -0.0148; in test [5] it was -0.0562; in test [6], 0.0048; in test [7] it was 0.0408. Also, the Bliss excess in test [11] is 0.0483; in test [12] it was -0.0135; with Saos-2 (Osteosarcoma), 0.0118; in [13] it was 0.0133; in test [14], 0.0197; in test [8] it was -0.0458. Also, the Bliss excess in test [15] was -0.0284.

Regarding `CS(=O)(=O)CCNCc1ccc(-c2ccc3ncnc(Nc4ccc(OCc5cccc(F)c5)c(Cl)c4)c3c2)o1` [Lapatinib] + NC1(c2ccc(-c3nc4ccn5c(=O)[nH]nc5c4cc3-c3ccccc3)cc2)CCC1 [MK-2206] (first compound max 10 µM, 7x7, partner max 10 µM), the Bliss excess in test [9] was 0.0328; in test [1] it was -0.0006; in test [2], 0.0254; in [3], -0.062; with SK-MEL-1 (Melanoma) it was -0.0408; with MCF7 (Breast Carcinoma), -0.0702. The Bliss excess was 0.037 in the test with HCC38 (Breast Carcinoma); -0.0142 in the test with CS1 (Chondrosarcoma); 0.0164 in test [4]; -0.0136 in [5]; 0.0212 in test [6]; 0.0057 in test [7]. In addition, the Bliss excess in the test with Saos-2 (Osteosarcoma) was -0.0026; in test [13], -0.0202; in test [14], -0.0441; in test [8], 0.0128; in test [15] it was -0.0213.

Source of the values: the supplement of paper PMC11061612.
